Source: US20130109682A1, “CYCLIC ETHER COMPOUNDS USEFUL AS KINASE INHIBITORS” (NOVARTIS AG, priority 2010, published 2013)
Read-outs that look alike come from different tables or passages of the source.

Tests used:
FGFR3 kinase = FGFR3 kinase (Homo sapiens, UniProt P22607); assay: FGFR3 kinase inhibition assay (LanthaScreen TR-FRET); type: biochemical
Description: FGFR3 Kinase Inhibition Assay
LanthaScreen™ is the detection of Time-Resolved Fluorescence Resonance Energy Transfer (TR-FRET) using lanthanide chelates to measure interactions between various binding partners. The application of TR-FRET to assay kinase activity was first described by Mathis (1995). A TR-FRET assay was used to measure FGFR3 kinase inhibitory activity. The assay panel was run on a Biomek FX liquid handling workstations. To the assay plates containing […] compound or control solutions, 4.5 μL of buffer A (50 mM TRIS-HCl pH 7.4, 2 mM DTT, 0.02% Tween 20, 0.02 mM Na3VO4, H2O nanpure) including a generic concentration of ATP (2 μM f.c.) was added per well, followed by 4.5 μL of buffer B (4 uM ATP in Buffer A) including a generic concentration of polyEAY (50 nM f.c.), FGFR3 kinase, and divalent cations. Final concentration of kinase and cations were: [FGFR3 kinase]=0.20 nM, [Mg]=3 mM, [Mn]=3 mM. After 1 hour of incubation the kinase reactions were stopped by the addition of 4.5 μL of stop solution D (50 mM EDTA, 20 mM TRIS-HCl pH 7.4, 0.04% NP-40) immediately followed by 4.5 μL of buffer A (50 mM TRIS-HCl pH 7.4, 2 mM DTT, 0.02% Tween 20, 0.02 mM Na3VO4, H2O nanpure) including the Tb-labeled P-20 antibody to give a total detection volume of 18 μL. After an incubation time of 45 min in the dark, the plates were transferred into the Pherastar fluorescence reader for counting. The effect of compound on the enzymatic activity was obtained from the linear progress curves and determined from one reading (end point measurement).

[1] = tested on: KMS11 (human myeloma cell line); assay: Cell proliferation assay (CellTiter-Glo), KMS11; type: cell-based; settings: Homo sapiens, KMS-11
Summary of the method: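 KMS11 cells in IMDM with 10% FBS and sodium pyruvate, seeded at 2000 cells/well on assay day. Compound added at 2× to equal volume of cells, incubated 3 days at 37° C. Viability read by CellTiter-Glo luminescence; EC50 derived.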

FLT3D835Y kinase = molecular target: T1, FLT3D835Y kinase (Homo sapiens, UniProt P36888, D835Y); assay: FLT3D835Y kinase inhibition assay (LanthaScreen TR-FRET); type: biochemical; settings: read-out: FLT3 IC50
T1 sequence (P36888 27-993 D835Y): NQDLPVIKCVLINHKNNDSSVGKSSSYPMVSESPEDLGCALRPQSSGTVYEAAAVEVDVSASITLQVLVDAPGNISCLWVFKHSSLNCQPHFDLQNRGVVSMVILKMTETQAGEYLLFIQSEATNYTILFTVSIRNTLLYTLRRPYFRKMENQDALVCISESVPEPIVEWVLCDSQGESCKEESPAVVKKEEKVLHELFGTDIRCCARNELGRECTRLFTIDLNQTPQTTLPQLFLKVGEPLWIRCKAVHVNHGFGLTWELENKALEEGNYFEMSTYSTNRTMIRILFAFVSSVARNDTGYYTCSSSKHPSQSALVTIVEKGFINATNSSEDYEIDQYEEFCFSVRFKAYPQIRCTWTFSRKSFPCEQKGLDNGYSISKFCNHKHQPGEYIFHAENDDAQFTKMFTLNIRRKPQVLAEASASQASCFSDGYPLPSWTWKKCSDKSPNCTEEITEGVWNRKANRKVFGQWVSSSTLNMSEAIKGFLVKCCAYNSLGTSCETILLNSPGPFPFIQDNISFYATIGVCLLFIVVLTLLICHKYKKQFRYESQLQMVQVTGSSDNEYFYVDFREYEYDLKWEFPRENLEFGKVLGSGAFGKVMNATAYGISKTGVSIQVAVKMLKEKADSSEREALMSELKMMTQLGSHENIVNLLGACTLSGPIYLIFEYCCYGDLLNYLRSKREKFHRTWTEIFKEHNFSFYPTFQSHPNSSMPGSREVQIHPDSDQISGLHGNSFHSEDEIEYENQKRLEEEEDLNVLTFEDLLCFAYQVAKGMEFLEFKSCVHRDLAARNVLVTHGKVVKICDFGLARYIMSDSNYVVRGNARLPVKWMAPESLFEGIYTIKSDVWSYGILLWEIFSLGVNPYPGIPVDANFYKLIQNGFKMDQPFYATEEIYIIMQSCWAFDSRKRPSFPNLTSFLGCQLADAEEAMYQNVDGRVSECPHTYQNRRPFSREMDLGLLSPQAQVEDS
Description: FLT3D835Y Kinase Inhibition Assay
LanthaScreen™ is the detection of Time-Resolved Fluorescence Resonance Energy Transfer (TR-FRET) using lanthanide chelates to measure interactions between various binding partners. The application of TR-FRET to assay kinase activity was first described by Mathis (1995). A TR-FRET assay was used to measure FLT3D835Y kinase inhibitory activity. The assay panel was run on a Biomek FX liquid handling workstations. To the assay plates containing […] compound or control solutions, 4.5 μL of buffer A (50 mM TRIS-HCl pH 7.4, 2 mM DTT, 0.02% Tween 20, 0.02 mM Na3VO4, H2O nanpure) including a generic concentration of ATP (2 μM f.c.) was added per well, followed by […] of buffer B (4 uM ATP in Buffer A) including a generic concentration of polyEAY (50 nM f.c.), FLT3D835Y kinase, and divalent cations. Final concentration of kinase and cations were: [FLT3D835Y kinase]=5.7 nM, [Mg]=3 mM, [Mn]=3 mM. After 1 hour of incubation the kinase reactions were stopped by the addition of 4.5 μL of stop solution D (50 mM EDTA, 20 mM TRIS-HCl pH 7.4, 0.04% NP-40) immediately followed by 4.5 μL of buffer A (50 mM TRIS-HCl pH 7.4, 2 mM DTT, 0.02% Tween 20, 0.02 mM Na3VO4, H2O nanpure) including the Tb-labeled P-20 antibody to give a total detection volume of […]. After an incubation time of 45 min in the dark, the plates were transferred into the Pherastar fluorescence reader for counting. The effect of compound on the enzymatic activity was obtained from the linear progress curves and determined from one reading (end point measurement).

[2] = KMS11 cells, cell proliferation, read-out: KMS11-Luc EC50

FGFR3 kinase, sequence (P22607 23-806): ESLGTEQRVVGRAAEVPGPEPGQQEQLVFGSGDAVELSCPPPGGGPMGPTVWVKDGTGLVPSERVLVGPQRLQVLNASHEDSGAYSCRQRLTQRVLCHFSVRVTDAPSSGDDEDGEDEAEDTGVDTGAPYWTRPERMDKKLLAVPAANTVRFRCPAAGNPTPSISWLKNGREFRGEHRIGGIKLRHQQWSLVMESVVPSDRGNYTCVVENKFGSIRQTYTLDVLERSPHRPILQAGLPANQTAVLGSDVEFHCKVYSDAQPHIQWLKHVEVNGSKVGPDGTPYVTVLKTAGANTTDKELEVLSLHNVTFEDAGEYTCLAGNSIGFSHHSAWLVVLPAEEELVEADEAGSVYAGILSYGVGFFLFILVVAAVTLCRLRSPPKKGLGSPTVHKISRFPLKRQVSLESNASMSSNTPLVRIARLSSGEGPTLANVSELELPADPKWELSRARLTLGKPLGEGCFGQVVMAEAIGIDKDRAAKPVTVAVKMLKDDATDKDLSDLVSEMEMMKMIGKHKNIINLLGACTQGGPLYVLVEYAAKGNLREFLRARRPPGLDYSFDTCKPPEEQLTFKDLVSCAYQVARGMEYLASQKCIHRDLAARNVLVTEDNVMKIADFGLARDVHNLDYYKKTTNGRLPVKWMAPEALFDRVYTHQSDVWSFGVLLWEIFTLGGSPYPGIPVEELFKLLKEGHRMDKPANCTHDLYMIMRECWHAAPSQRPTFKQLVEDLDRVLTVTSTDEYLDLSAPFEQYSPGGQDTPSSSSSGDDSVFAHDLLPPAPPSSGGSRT

CC[C@]1(O)[C@H](O)C[C@H](c2ccncc2NC(=O)c2nc(-c3c(F)cccc3F)ncc2N)O[C@@H]1C [Example 143, 5-amino-2-(2,6-difluorophenyl)-N-(4-((2R,4R,5S,6R)-5-ethyl-4,5-dihydroxy-6-methyltetrahydro-2H-pyran-2-yl)pyridin-3-yl)pyrimidine-4-carboxamide]
IC50 (FGFR3 kinase): > 10 µM
EC50 ([1]; KMS11-Luc cells): 1.94 µM
IC50 (FLT3D835Y kinase): > 10 µM

Nc1ncc(-c2ccccc2)nc1C(=O)Nc1cnccc1[C@H]1C[C@@H](O)[C@@]2(O)CCCC[C@H]2O1 [Example 173, 3-amino-N-(4-((2R,4R,4aS,8aR)-4,4a-dihydroxyoctahydro-2H-chromen-2-yl)pyridin-3-yl)-6-phenylpyrazine-2-carboxamide]
IC50 (FGFR3 kinase): 0.045 µM
IC50 (FLT3D835Y kinase): 0.0074 µM

Nc1ncc(-c2ccccc2)nc1C(=O)Nc1cnccc1[C@@H]1C[C@H](O)[C@]2(O)CCCC[C@@H]2O1 [Example 176, 3-amino-N-(4-((2S,4S,4aR,8aS)-4,4a-dihydroxyoctahydro-2H-chromen-2-yl)pyridin-3-yl)-6-phenylpyrazine-2-carboxamide]
IC50 (FGFR3 kinase): 8 µM
EC50 ([1]; KMS11-Luc cells): 3.6 µM
IC50 (FLT3D835Y kinase): 1.1 µM

O=C(Nc1cnccc1[C@H]1C[C@@H](O)[C@@]2(O)CCCC[C@H]2O1)c1c[nH]cc(-c2ccccc2)c1=O [Example 178, N-(4-((2R,4R,4aS,8aR)-4,4a-dihydroxyoctahydro-2H-chromen-2-yl)pyridin-3-yl)-4-oxo-5-phenyl-1,4-dihydropyridine-3-carboxamide]
IC50 (FGFR3 kinase): > 10 µM
EC50 ([1]; KMS11-Luc cells): > 10 µM
IC50 (FLT3D835Y kinase): > 10 µM

Nc1ncc(-c2ccccc2)nc1C(=O)Nc1cnccc1[C@H]1C[C@@H](N)[C@@]2(O)CCC[C@H]2O1 [Example 183, 3-amino-N-(4-((2R,4R,4aS,7aR)-4-amino-4a-hydroxyoctahydrocyclopenta[b]pyran-2-yl)pyridin-3-yl)-6-phenylpyrazine-2-carboxamide]
IC50 (FGFR3 kinase): 0.044 µM
EC50 [1, 2]: 1.57 µM
IC50 (FLT3D835Y kinase): 0.0044 µM

Nc1ncc(-c2ccccc2)nc1C(=O)Nc1cnccc1[C@@H]1C[C@H](N)[C@]2(O)CCC[C@@H]2O1 [Example 185, 3-amino-N-(4-((2S,4S,4aR,7aS)-4-amino-4a-hydroxyoctahydrocyclopenta[b]pyran-2-yl)pyridin-3-yl)-6-phenylpyrazine-2-carboxamide]
IC50 (FGFR3 kinase): > 10 µM
EC50 [1, 2]: 9.39 µM
IC50 (FLT3D835Y kinase): 1 µM

Nc1ncc(-c2ccccc2)nc1C(=O)Nc1cnccc1[C@@H]1C[C@H](O)[C@]2(O)CCC[C@@H]2O1 [Example 186, 3-amino-N-(4-((2S,4S,4aR,7aS)-4,4a-dihydroxyoctahydrocyclopenta[b]pyran-2-yl)pyridin-3-yl)-6-phenylpyrazine-2-carboxamide]
IC50 (FGFR3 kinase): 3.7 µM
EC50 ([1]; KMS11-Luc cells): 6.91 µM
IC50 (FLT3D835Y kinase): 1.6 µM

CC[C@]1(O)[C@H](N)C[C@H](c2ccncc2NC(=O)c2nc(-c3ccccc3)cnc2N)O[C@@H]1C [Example 187, 3-amino-N-(4-((2R,4R,5S,6R)-4-amino-5-ethyl-5-hydroxy-6-methyltetrahydro-2H-pyran-2-yl)pyridin-3-yl)-6-phenylpyrazine-2-carboxamide]
IC50 (FGFR3 kinase): 0.83 µM
EC50 [1, 2]: 0.95 µM
IC50 (FLT3D835Y kinase): 0.0017 µM

CC[C@]1(O)[C@H](C)O[C@H](c2ccncc2NC(=O)c2nc(-c3ccccc3)cnc2N)C[C@@H]1N [Example 189, 3-amino-N-(4-((2S,4S,5R,6S)-4-amino-5-ethyl-5-hydroxy-6-methyltetrahydro-2H-pyran-2-yl)pyridin-3-yl)-6-phenylpyrazine-2-carboxamide]
IC50 (FGFR3 kinase): 7.4 µM
EC50 [1, 2]: 8.83 µM
IC50 (FLT3D835Y kinase): 0.17 µM

Nc1ncc(-c2ccccc2)nc1C(=O)Nc1cnccc1[C@H]1C[C@@H](O)[C@@]2(O)CCC[C@H]2O1 [Example 195, 3-amino-N-(4-((2R,4R,4aS,7aR)-4,4a-dihydroxyoctahydrocyclopenta[b]pyran-2-yl)pyridin-3-yl)-6-phenylpyrazine-2-carboxamide]
IC50 (FGFR3 kinase): 0.011 µM
EC50 ([1]; KMS11-Luc cells): 0.11 µM
IC50 (FLT3D835Y kinase): 0.0035 µM

CC[C@]1(O)[C@H](N)C[C@H](c2ccncc2NC(=O)c2ccc(F)c(-c3c(F)cccc3F)n2)O[C@@H]1C [Example 232, N-(4-((2R,4R,5S,6R)-4-amino-5-ethyl-5-hydroxy-6-methyltetrahydro-2H-pyran-2-yl)pyridin-3-yl)-6-(2,6-difluorophenyl)-5-fluoropicolinamide]
IC50 (FGFR3 kinase): > 10 µM
IC50 (FLT3D835Y kinase): 0.83 µM

Nc1cc(F)c(-c2c(F)cccc2F)nc1C(=O)Nc1cnccc1[C@H]1C[C@@H](N)[C@@]2(O)CCCC[C@H]2O1 [Example 238, 3-amino-N-(4-((2R,4R,4aS,8aR)-4-amino-4a-hydroxyoctahydro-2H-chromen-2-yl)pyridin-3-yl)-6-(2,6-difluorophenyl)-5-fluoropicolinamide]
IC50 (FGFR3 kinase): > 10 µM
IC50 (FLT3D835Y kinase): 0.99 µM

COc1cc(F)c(-c2nc(C(=O)Nc3cnccc3[C@H]3C[C@@H](N)[C@](C)(O)[C@@H](C)O3)ccc2F)c(F)c1 [Example 242, N-(4-((2R,4R,5S,6R)-4-amino-5-hydroxy-5,6-dimethyltetrahydro-2H-pyran-2-yl)pyridin-3-yl)-6-(2,6-difluoro-4-methoxyphenyl)-5-fluoropicolinamide]
IC50 (FGFR3 kinase): > 10 µM
IC50 (FLT3D835Y kinase): 1.2 µM

CC1(C)C[C@@H](N)C[C@H](c2ccncc2NC(=O)c2nc(-c3ccccc3)cnc2N)O1 [Example 296, 3-amino-N-(4-((2R,4S)-4-amino-6,6-dimethyltetrahydro-2H-pyran-2-yl)pyridin-3-yl)-6-phenylpyrazine-2-carboxamide]
IC50 (FGFR3 kinase): 0.2 µM
IC50 (FLT3D835Y kinase): 0.0008 µM

CC1(C)C[C@H](N)C[C@@H](c2ccncc2NC(=O)c2nc(-c3ccccc3)cnc2N)O1 [Example 297, 3-amino-N-(4-((2S,4R)-4-amino-6,6-dimethyltetrahydro-2H-pyran-2-yl)pyridin-3-yl)-6-phenylpyrazine-2-carboxamide]
IC50 (FGFR3 kinase): 1.6 µM
IC50 (FLT3D835Y kinase): 0.023 µM
